Earlier results in US20120061267A1, “MediTowel Anti-Fungal Wipe” (priority 2010, published 2012).
Where a name gives a salt, the structure may show the parent alone.

Assays:
[1] = system: Trichophyton mentagrophytes; settings: at a low concentration
squalene epoxidase = settings: in the cells of fungi

Structure (SMILES): CN(C/C=C/C#CC(C)(C)C)Cc1cccc2ccccc12 [Terbinafine hydrochloride]
- fungicidal effect on sterilizing germinated conidium [1]: fungicidal effect
- inhibition of squalene epoxidase (squalene epoxidase): selectively inhibits
